Paper PMC8746953, “Caseinolytic Proteins (Clp) in the Genus Klebsiella: Special Focus on ClpK” (Molecules, 2021)

Target: T1, ClpK (Klebsiella pneumoniae, UniProt E0W6V3)
T1 construct: full-length codon-optimised gene in pColdI (BamH1/SalH1), His-tagged, expressed in E. coli BL21; oligomer not measured
Assay: fluorescence emission of mant-nucleotide (excitation […] nm)
Assay type: binding
Settings: 2 uM ClpK, 10 uM mant-ATP; 10 mM sodium phosphate pH 7.4, 20 °C; labelled compound

T1 sequence (E0W6V3 entry or part of it): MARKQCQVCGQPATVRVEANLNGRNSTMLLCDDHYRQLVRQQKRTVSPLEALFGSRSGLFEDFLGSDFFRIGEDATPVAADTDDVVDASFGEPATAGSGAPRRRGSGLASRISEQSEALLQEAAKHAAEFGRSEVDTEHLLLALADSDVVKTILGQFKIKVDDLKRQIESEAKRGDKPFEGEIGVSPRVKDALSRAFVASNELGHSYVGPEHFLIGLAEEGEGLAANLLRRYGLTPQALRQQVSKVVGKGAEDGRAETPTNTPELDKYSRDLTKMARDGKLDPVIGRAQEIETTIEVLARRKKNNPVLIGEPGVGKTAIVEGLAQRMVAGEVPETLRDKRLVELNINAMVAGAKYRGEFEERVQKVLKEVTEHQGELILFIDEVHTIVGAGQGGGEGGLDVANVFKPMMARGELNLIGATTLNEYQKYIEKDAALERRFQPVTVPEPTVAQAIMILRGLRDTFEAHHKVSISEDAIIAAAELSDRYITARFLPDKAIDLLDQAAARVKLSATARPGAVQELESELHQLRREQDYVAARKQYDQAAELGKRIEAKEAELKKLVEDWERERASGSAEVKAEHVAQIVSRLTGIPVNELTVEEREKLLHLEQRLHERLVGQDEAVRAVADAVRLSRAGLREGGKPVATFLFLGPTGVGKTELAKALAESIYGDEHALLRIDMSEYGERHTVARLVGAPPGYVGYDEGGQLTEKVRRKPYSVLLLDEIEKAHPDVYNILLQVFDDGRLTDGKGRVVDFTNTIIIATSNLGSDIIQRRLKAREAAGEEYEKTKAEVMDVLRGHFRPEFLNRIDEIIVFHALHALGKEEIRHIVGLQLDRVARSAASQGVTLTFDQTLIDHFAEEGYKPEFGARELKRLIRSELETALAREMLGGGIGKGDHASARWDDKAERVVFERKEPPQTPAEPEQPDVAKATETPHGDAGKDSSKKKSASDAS

Compound: CNc1ccccc1C(=O)O[C@H]1[C@@H](O)[C@H](n2cnc3c(N)ncnc32)O[C@@H]1COP(=O)(O)OP(=O)(O)OP(=O)(O)O [mant-ATP]
- fluorescence emission of mant-nucleotide (excitation 355 nm): The spectrum indicates binding of mant-ATP as indicated by an increase in the fluorescence quantum yield
